In ChEMBL document CHEMBL5030545, “Discovery of clinical candidate Sivopixant (S-600918): Lead optimization of dioxotriazine derivatives as selective P2X3 receptor antagonists” (Bioorg Med Chem Lett, 2021):
Converted amounts (≈) assume the structure as drawn.

Legend:
[1] = Oral bioavailability in rat at 1 mg/kg administered as cassette dose; format: ADME, organism-based; settings: in vivo
[2] = Ratio of plasma concentration in rat measured after 3 hrs to IC50 of P2X3 (unknown origin); format: ADME; settings: in vivo
[3] = Solubility of the compound in pH 1.2 JP1 fluid; format: physicochemical
[4] = test system: Rattus norvegicus; experiment: Analgesic activity in po dosed rat model of partial sciatic nerve ligation-induced neuropathic pain; format: functional
[5] = Oral bioavailability in rat at 3 mg/kg; format: ADME, organism-based; settings: in vivo
[6] = Solubility of the compound in JP2 fluid at pH 6.8; format: physicochemical
[7] = target: Cytochrome P450 2D6 (Homo sapiens, UniProt P10635); experiment: Inhibition of CYP2D6 (unknown origin); format: functional
Cytochrome P450 2D6, sequence (P10635 whole entry): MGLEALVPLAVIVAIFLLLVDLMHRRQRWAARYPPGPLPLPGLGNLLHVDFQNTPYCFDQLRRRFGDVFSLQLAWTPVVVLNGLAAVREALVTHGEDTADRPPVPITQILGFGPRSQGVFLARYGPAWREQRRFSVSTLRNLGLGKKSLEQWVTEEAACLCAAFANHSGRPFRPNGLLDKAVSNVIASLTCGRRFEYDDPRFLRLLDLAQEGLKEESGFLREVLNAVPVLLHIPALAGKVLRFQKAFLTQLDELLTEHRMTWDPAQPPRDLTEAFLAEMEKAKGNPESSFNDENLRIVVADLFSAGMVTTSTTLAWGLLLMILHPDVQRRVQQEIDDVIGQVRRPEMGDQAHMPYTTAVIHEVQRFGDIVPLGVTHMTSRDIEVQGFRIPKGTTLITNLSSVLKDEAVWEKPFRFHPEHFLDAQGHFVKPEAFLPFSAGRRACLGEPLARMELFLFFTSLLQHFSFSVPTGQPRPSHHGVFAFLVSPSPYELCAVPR

[8] = target: Cytochrome P450 3A4 (Homo sapiens, UniProt P08684); experiment: Inhibition of CYP3A4 (unknown origin); format: ADME
Cytochrome P450 3A4, sequence (P08684 whole entry): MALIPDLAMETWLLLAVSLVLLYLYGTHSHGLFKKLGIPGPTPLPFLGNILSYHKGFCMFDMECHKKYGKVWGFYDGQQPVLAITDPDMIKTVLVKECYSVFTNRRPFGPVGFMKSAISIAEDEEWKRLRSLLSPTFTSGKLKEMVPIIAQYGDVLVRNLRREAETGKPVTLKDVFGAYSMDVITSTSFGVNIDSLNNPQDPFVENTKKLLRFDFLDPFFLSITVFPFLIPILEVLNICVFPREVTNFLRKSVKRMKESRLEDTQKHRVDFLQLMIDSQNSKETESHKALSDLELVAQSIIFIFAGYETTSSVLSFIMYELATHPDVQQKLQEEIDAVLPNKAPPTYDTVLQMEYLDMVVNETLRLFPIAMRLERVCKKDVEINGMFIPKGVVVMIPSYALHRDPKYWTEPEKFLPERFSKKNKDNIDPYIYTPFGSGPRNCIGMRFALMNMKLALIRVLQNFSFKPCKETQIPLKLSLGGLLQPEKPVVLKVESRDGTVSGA

[9] = Half life in rat at 1 mg/kg, iv; format: ADME, organism-based; settings: in vivo
[10] = target: T1, P2X purinoceptor 1 (Homo sapiens, UniProt P51575); experiment: Antagonist activity at P2X1 receptor (unknown origin)
T1 sequence (P51575 whole entry): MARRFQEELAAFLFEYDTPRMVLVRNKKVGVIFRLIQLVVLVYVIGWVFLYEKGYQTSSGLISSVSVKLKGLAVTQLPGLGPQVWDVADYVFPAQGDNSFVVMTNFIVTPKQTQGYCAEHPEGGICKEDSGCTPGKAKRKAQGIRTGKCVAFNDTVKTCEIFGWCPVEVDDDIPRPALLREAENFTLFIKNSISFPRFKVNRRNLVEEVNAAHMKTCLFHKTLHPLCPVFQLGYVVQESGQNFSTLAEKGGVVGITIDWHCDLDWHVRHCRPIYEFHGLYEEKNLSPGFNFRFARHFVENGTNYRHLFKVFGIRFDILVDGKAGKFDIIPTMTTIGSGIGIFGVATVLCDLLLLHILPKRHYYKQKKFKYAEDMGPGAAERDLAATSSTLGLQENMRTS

C[C@@H](Cn1c(=O)[nH]/c(=N\c2ccc(Oc3ccccn3)cc2)n(Cc2ccc(Cl)cc2)c1=O)C(=O)O
bioavailability [1]: 52.8%
Ratio [2]: 156.9
solubility [3]: 31.5 µg/mL (≈ 62 µM)
ED50 [4]: 0.4 mg/kg
bioavailability [5]: 76.8%
solubility [6]: 458 µg/mL (≈ 902 µM)
IC50 [7]: > 20 µM
IC50 [8]: > 20 µM
half-life [9]: 10.1 h
IC50 [10]: > 30 µM
